Source: ChEMBL document CHEMBL2074105, “The potential for an interaction between MRP2 (ABCC2) and various therapeutic agents: probenecid as a candidate inhibitor of the biliary excretion of irinotecan metabolites” (Drug Metabol Pharmacokin, 2002)

Tests used:
[1] = target: T1, ATP-binding cassette sub-family C member 2 (Rattus norvegicus, UniProt Q63120); assay: TP_TRANSPORTER: inhibition of DNP-SG uptake in bile canalicular membrane vesicles from SD rat; assay type: functional, cell membranes, Sprague-Dawley, Bile canalicular membrane vesicle
T1 sequence (Q63120 whole entry): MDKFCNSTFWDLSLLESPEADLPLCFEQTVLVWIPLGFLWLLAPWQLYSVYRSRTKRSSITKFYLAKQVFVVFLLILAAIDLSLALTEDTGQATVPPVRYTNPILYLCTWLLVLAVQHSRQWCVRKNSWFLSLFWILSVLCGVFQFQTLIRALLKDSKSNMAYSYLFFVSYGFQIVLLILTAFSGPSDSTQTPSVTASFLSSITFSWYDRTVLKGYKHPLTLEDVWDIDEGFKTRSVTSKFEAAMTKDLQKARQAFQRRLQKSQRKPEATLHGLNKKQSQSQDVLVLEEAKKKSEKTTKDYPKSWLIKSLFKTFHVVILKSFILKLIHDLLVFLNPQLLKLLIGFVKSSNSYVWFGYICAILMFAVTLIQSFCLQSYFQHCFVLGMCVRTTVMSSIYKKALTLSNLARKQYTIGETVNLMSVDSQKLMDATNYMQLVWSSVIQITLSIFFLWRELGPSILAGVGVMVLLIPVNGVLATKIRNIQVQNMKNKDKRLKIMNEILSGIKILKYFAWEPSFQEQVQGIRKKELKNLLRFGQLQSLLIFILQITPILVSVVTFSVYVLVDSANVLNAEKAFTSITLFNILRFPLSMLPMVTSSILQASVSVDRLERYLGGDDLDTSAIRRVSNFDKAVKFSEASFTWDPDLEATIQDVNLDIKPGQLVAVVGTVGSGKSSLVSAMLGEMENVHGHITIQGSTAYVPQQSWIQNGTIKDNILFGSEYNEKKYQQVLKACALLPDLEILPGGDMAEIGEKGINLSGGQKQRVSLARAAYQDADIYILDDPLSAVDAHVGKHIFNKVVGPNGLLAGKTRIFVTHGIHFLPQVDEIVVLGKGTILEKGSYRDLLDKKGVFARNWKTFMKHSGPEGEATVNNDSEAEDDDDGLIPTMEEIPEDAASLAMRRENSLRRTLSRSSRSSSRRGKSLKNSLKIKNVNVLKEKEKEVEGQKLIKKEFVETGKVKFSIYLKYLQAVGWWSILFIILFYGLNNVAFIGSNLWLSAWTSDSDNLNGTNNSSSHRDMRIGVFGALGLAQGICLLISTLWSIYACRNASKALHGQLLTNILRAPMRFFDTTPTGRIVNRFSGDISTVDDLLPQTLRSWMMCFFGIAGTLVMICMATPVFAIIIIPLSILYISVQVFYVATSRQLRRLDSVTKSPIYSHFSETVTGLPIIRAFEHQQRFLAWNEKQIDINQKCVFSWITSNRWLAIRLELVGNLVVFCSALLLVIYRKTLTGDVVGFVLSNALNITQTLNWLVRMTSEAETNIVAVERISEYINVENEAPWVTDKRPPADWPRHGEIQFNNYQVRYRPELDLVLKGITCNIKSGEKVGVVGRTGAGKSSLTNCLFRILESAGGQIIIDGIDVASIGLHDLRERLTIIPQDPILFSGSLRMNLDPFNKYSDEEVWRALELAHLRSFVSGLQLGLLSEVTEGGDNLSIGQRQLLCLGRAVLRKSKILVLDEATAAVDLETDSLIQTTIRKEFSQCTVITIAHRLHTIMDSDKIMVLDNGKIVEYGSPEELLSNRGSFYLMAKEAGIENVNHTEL

[2] = target: T1, ATP-binding cassette sub-family C member 2; assay: TP_TRANSPORTER: inhibition of SN-38 uptake in bile canalicular membrane vesicles from SD rat; assay type: functional, cell membranes, Sprague-Dawley, Bile canalicular membrane vesicle
[3] = target: T1, ATP-binding cassette sub-family C member 2; assay: TP_TRANSPORTER: inhibition of DNP-SG uptake in blie canalicular membrane vesicle from SD rat; assay type: functional, cell membranes, Sprague-Dawley, Bile canalicular membrane vesicle
[4] = target: ATP-binding cassette sub-family C member 2 (Rattus norvegicus) (UniProt Q63120); assay: TP_TRANSPORTER: inhibition of SN-38 uptake in bile canalicular membrane vesicles
ATP-binding cassette sub-family C member 2 (Rattus norvegicus), sequence (Q63120 whole entry, looked up): as the sequence (Q63120 whole entry) above

Row | Ki [1] [µM] | Molecule | other results
1 | 0.84 | CC1(C)[C@@H](O[C@H]2O[C@H](C(=O)O)[C@@H](O)[C@H](O)[C@H]2O[C@@H]2O[C@H](C(=O)O)[C@@H](O)[C@H](O)[C@H]2O)CC[C@]2(C)[C@H]3C(=O)C=C4[C@@H]5C[C@@](C)(C(=O)O)CC[C@]5(C)CC[C@@]4(C)[C@]3(C)CC[C@@H]12 [GLYCYRRHIZIN] | Ki [2]: 1.91 µM
2 | 1 | CC1(C)C(/C=C/C=C/C=C/C=C2\N(CCCCS(=O)(=O)O)c3ccc4ccccc4c3C2(C)C)=[N+](CCCCS(=O)(=O)[O-])c2ccc3ccccc3c21 [INDOCYANINE GREEN] | –
3 | 41.1 | O=C(Nc1cccc2c(=O)cc(-c3nnn[nH]3)oc12)c1ccc(OCCCCc2ccccc2)cc1 [PRANLUKAST] | –

Second part, the molecule before the results:

Row | Molecule | Ki [1] [µM] | other results
4 | N[C@@H](CCC(=O)N[C@@H](CSc1c(Br)c(Br)c2c(c1Br)C(=O)OC2(c1ccc(O)c(S(=O)(=O)O)c1)c1ccc(O)c(S(=O)(=O)O)c1)C(=O)NCC(=O)O)C(=O)O | 0.0461 | –
5 | O=C(O)[C@H]1O[C@@H](Oc2cc3oc(-c4ccccc4)cc(=O)c3c(O)c2O)[C@H](O)[C@@H](O)[C@@H]1O [BAICALIN] | 7.95 | –
6 | CO/N=C(\C(=O)N[C@@H]1C(=O)N2C(C(=O)O)=C(CSc3nc(C)c(CC(=O)O)s3)CS[C@H]12)c1csc(N)n1 [CEFODIZIME] | 10 | –
7 | Nc1nc2c(c(=O)[nH]1)N(C=O)C(CNc1ccc(C(=O)N[C@@H](CCC(=O)O)C(=O)O)cc1)CN2 (stereo partly drawn) [LEUCOVORIN] | 132 | –
8 | CCCN(CCC)S(=O)(=O)c1ccc(C(=O)O)cc1 [PROBENECID] | – | Ki [3]: 44.6 µM; Ki [4]: 42.2 µM
9 | O=C1OC(c2ccc(O)c(S(=O)(=O)O)c2)(c2ccc(O)c(S(=O)(=O)O)c2)c2c(Br)c(Br)c(Br)c(Br)c21 [SULFOBROMOPHTHALEIN SODIUM] | 2.18 | Ki [2]: 2.87 µM
10 | CREMOPHOR EL | 281 | –
